# Where “and” joins values, the source holds several entries; their conditions need not be identical. Equal values may be shown once. Read-outs that look alike come from different tables or passages of the source. Positions of bridges follow the written chain, without caps; N, C: chain ends. Residues, ends and D or L forms follow the SMILES beside them.
# Columns and labels:
# [1] = tested on: E. coli ATCC clinical isolates; assay: microbe, parasite or virus in culture; format: cell-based
# From the text: To address the emerging antibiotic resistance issue, it is not only required to develop active antibiotics against wildtype bacteria, but also against the clinically isolated multidrug-resistant strains. Therefore, we determined whether P2 variants with a 4-fold lower MICs (P2_A5F, V7Y (P2), P2_H12_GV, P2_H12_PEG) (S12 Table) will also show improved antimicrobial activity against these multidrug-resistant strains. Since a high net positive charge could carry inherent developability challenges, we further explored the therapeutic potential of P2 variants with reduced net charge (P2_4R_GV and P2_4R_L) (S12 Table) by determining their antimicrobial activity against these clinically isolated multidrug-resistant strains. The mode of action of these derivatives remains to be inducing protein aggregation in bacteria as shown by the formation of IBs stained by pFTAA after Pept-in treatment (P2, P2-4R-GV, P2_A5F, V7Y (P2), P2_H12_GV, P2_H12_PEG) (S6A Fig) and the presence of a large number of proteins with different molecular weights in purified IBs as shown by the Coomassie staining (S6B Fig), in contrast to the absence of pFTAA staining (S6A Fig) and the presence of only two faint protein bands (S6B Fig) for buffer and control peptide treated bacteria. For clinically isolated multidrug-resistant strains, in addition to the 34 clinical isolates of E. coli ATCC, we added 12 Acinetobacter baumannii (A. baumannii) isolates and 12 Klebsiella pneumoniae (K. pneumoniae) isolates to broaden the selection of the bacterial spectrum.
# (§1) The peptide MIC was determined via the broth microdilution assay according to the EUCAST guideline, using 96-well polystyrene flat-bottom microtiter plates (BD Biosciences). Briefly, a single colony was inoculated in 5 mL Mueller-Hinton (MH) medium and incubated, while shaking at 37°C, to the end-exponential growth phase. The bacterial culture was subsequently diluted to 0.005 McFarland (McF) (~1.5x10^6 CFU/mL) with fresh MH medium. […] The MIC was determined as the lowest peptide concentration without visible bacterial growth.
# [2] = tested on: E. coli BL21; details: BL21, 17 h
# Method in brief: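 EUCAST broth microdilution in Mueller-Hinton medium; end-exponential culture diluted to 0.005 McF (~1.5x10^6 CFU/mL) before 1:1 mixing with two-fold peptide dilutions (0.75 to 100 μg/mL), triplicates.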
# [3] = tested on: K. pneumoniae clinical isolates; format: cell-based, Klebsiella pneumoniae; details: 17 h
# From the text: To address the emerging antibiotic resistance issue, it is not only required to develop active antibiotics against wildtype bacteria, but also against the clinically isolated multidrug-resistant strains. Therefore, we determined whether P2 variants with a 4-fold lower MICs (P2_A5F, V7Y (P2), P2_H12_GV, P2_H12_PEG) (S12 Table) will also show improved antimicrobial activity against these multidrug-resistant strains. Since a high net positive charge could carry inherent developability challenges, we further explored the therapeutic potential of P2 variants with reduced net charge (P2_4R_GV and P2_4R_L) (S12 Table) by determining their antimicrobial activity against these clinically isolated multidrug-resistant strains. […]
# The peptide MIC was determined via the broth microdilution assay according to the EUCAST guideline, using 96-well polystyrene flat-bottom microtiter plates (BD Biosciences). […] The MIC was determined as the lowest peptide concentration without visible bacterial growth.
# [4] = tested on: E. coli XL1-Red (ancestor strain); format: cell-based; details: XL1-Red (ancestor strain, 17 h)
# Experimental: In a previous study, we generated a P2-resistant strain by subculturing the hypermutable E. coli XL1-Red, which has a 5 000-fold higher mutation rate than wildtype bacteria, at the sub-MIC concentration of P2 for 27 days. […] The MIC of a few categories of P2 variants were determined to investigate whether P2 antimicrobial activity can be restored against P2-resistant bacteria via structure modification. […] The amount of intracellularly accumulated P2_VFV in P2-resistant strains was much higher than P2 (Fig 5A), which was sufficient to induce cell death (FAM^+Draq7^+ cells) (Fig 5B). […] (Fig 5C).
# as §1, with “medium. Two-fold serial peptide-dilutions were prepared in 50 μL MH medium resulting in a concentration range of 0.75 to 100 μg/mL (at least three wells for each concentration).” for “medium.”
Structure (SMILES),"MIC ([1]; ATCC clinical isolates, 17 h) [µg/mL]",BL21 MIC [2] [µg/mL],MIC [3] [µg/mL],"BL21 MIC, SS bond [2] [µg/mL]","BL21 MIC, no SS bond [2] [µg/mL]","MIC, Ancestor [4] [µg/mL]","MIC ([1]; Escherichia coli, S12 Table, each table row is one E. coli clinical isolate (34 isolates), highest concentration tested 32 μg/mL, read-out: MIC) [µg/mL]","MIC ([1]; S12 Table, each table row is one E. coli clinical isolate (34 isolates), highest concentration tested 32 μg/mL)"
CC(C)C[C@H](NC(=O)CNC(=O)[C@H](CCCNC(=N)N)NC(=O)[C@@H]1CCCN1C(=O)[C@H](CCCNC(=N)N)NC(=O)[C@H](CCCNC(=N)N)NC(=O)[C@H](Cc1ccc(O)cc1)NC(=O)[C@H](CC(C)C)NC(=O)[C@H](C)NC(=O)[C@H](CC(C)C)NC(=O)CNC(=O)[C@H](CC(C)C)NC(=O)CNC(=O)[C@@H](N)CCCNC(=N)N)C(=O)NCC(=O)N[C@@H](CC(C)C)C(=O)N[C@@H](C)C(=O)N[C@@H](CC(C)C)C(=O)N[C@@H](Cc1ccc(O)cc1)C(=O)N[C@@H](CCCNC(=N)N)C(=O)N[C@@H](CCCNC(=N)N)C(=O)O [V7Y (P2)] (H-RGLGLALYRRPRGLGLALYRR-OH),8,3.13,8,,,,,
CC(C)C[C@@H]1NC(=O)CNC(=O)[C@H](CCCNC(=N)N)NC(=O)[C@H](C(C)C)NC(=O)[C@H](CCCNC(=N)N)NC(=O)[C@H](CCCNC(=N)N)NC(=O)[C@H](C(C)C)NC(=O)[C@H](CC(C)C)NC(=O)[C@H](C)NC(=O)[C@H](CC(C)C)NC(=O)CNC(=O)[C@H](CC(C)C)NC(=O)[C@@H](NC(=O)[C@@H](N)CCCNC(=N)N)CSSC[C@@H](C(=O)O)NC(=O)[C@H](CO)NC(=O)CNC(=O)[C@H](CCCNC(=N)N)NC(=O)[C@H](CCCNC(=N)N)NC(=O)[C@H](CC(C)C)NC(=O)[C@H](C)NC(=O)[C@H](CC(C)C)NC(=O)CNC1=O [Peptide P2_H6] (H-RCLGLALVRRVRGLGLALRRGSC-OH; disulfide 2-23),,,,6.25,12.5,3.13,,
NC[C@H]1O[C@H](O[C@H]2[C@H](O)[C@@H](O[C@H]3O[C@H](CO)[C@@H](O)[C@H](N)[C@H]3O)[C@H](N)C[C@@H]2N)[C@H](N)C[C@@H]1O [Tobramycin],,,,,,,1,0.5 µg/mL and >1 µg/mL
CC(C)C[C@H](NC(=O)CNC(=O)[C@H](CCCNC(=N)N)NC(=O)[C@@H]1CSSC[C@H](NC(=O)[C@@H](NC(=O)[C@H](CC(C)C)NC(=O)[C@H](C)NC(=O)[C@H](CC(C)C)NC(=O)CNC(=O)[C@H](CC(C)C)NC(=O)CNC(=O)[C@@H](N)CCCNC(=N)N)C(C)C)C(=O)N[C@@H](CCCNC(=N)N)C(=O)N[C@@H](CCCNC(=N)N)C(=O)NCC(=O)N[C@@H](C(C)C)C(=O)N1)C(=O)NCC(=O)N[C@@H](CC(C)C)C(=O)N[C@@H](C)C(=O)N[C@@H](CC(C)C)C(=O)N[C@H](C(=O)N[C@@H](CCCNC(=N)N)C(=O)N[C@@H](CCCNC(=N)N)C(=O)O)C(C)C [Peptide P2_H12_GV] (H-RGLGLALVCRRGVCRGLGLALVRR-OH; disulfide 9-14),,3.13,,3.13,6.25,3.13,,
